One data set concerns Chochliobolus miyabeanus. The experiment in a line: Effect on Rice brown spot (preventive spray test). Format: in vivo. Particulars: 7 days after inoculation.
The test system of a further data set is Puccinia recondite. Nature of the data set: Penetration and translocation in wheat leaves (covered leaf tip, brown rust). The data set is classed as in vivo. Particulars: conc. of active ingredient 200 ppm.
The next data set deals with Puccinia recondita. Nature of the data set: Effect on Wheat brown rust (preventive spray test). The data set is classed as in vivo. Particulars: 7 days after inoculation.
A further data set relates to Pyricularia oryzae. The data set is classed as in vivo. Particulars: Rice blast, 7 days after inoculation.
A further data set concerns Rhizoctonia solani. The experiment in a line: Effect on Rice sheath blight (preventive spray test). Particulars: 10 days after inoculation.
The subject of data set [1] is Psecidoperonospora cubensis. Nature of the data set: Effect on Cucumber downy mildew (preventive spray test). Format: in vivo. The note with it: 7 days after inoculation.
Data set [2] deals with Pseudoperonospora cubenis. The experiment in a line: Penetration and translocation in cucumber leaf (drop on back of leaf, downy mildew). The note with it: 10 μl drop on back of leaf, conc. of active ingredient 200 ppm, disease-free area 5 days after the spraying. Details: key: 3: At least 40% of the area of the leaf was free from the disease.; 20 to 40% of the area of the leaf was free from the disease.; 1: An area larger than the spot of the drop but smaller than 20% of the area of the leaf was free from the disease.; 0: Only the spot of the drop was free from the disease. The data set is classed as in vivo. As for the experimental part:
Four points were marked at random on the first leaf of each cucumber seedling (variety: Shogoin aonaga fushinari) in two-leaf stage in each pot having a diameter of 6 cm. […] The leaf was kept in a greenhouse for one day and then uniformly inoculated with a zoospore suspension of Pseudoperonospora cubenis by means of a spray gun, then left to stand in a high-humidity room at 24° C. for 24 hours, and kept in a greenhouse. The area of the disease-free part 5 days after the spraying was represented in terms of the index.
3: At least 40% of the area of the leaf was free from the disease.
2: 20 to 40% of the area of the leaf was free from the disease.
1: An area larger than the spot of the drop but smaller than 20% of the area of the leaf was free from the disease.
0: Only the spot of the drop was free from the disease.

A further data set deals with Erysiphe graminis. The experiment in a line: Effects on Barley powdery mildew (preventive spray test). The note with it: lesions counted seven days after inoculation. The data set is classed as in vivo.
Another data set concerns Phytophthora infestans. Format: in vivo. Particulars: Tomato late blight, 5 days after inoculation.
The test system of the next data set is Nephotettix cincticeps. The experiment in a line: Effect on Nephotettix cincticeps (rice seedling immersion). The note with it: Test Example 14.
The subject of a further data set is Plutella xylostella. The experiment in a line: Effect on Plutella xylostella (Chinese cabbage leaf spray). The note with it: Test Example 13.
In a further data set the test system is Spodoptera litura. Nature of the data set: Effect on Spodoptera litura (chinese cabbage leaf spray). Particulars: Test Example 12.
A further data set relates to Tetranychus kanzawai. Nature of the data set: Effect on Tetranychus kanzawai (green bean leaf spray). The note with it: Test Example 11.
The subject of the next data set is Botrytis cinerea. The experiment in a line: Effect on Cucumber gray mold (cotyledon paper disc test). The data set is classed as in vivo. The note with it: 3 days after inoculation.
In a further data set the test system is Aphis gossypii. Nature of the data set: Effect on Aphis gossypii (cucumber seedling spray). Particulars: Test Example 15.
Where [3] appears, read: conc. of active ingredient 20 ppm.
Setting [4] is: conc. of active ingredient 100 ppm.

Read-outs that look alike come from different tables or passages of the source.

Excerpt for Aphis gossypii: 5 or 6 imagoes of Aphis gossypii were released on a cucumber seedling of 1- or 2-leaf stage in a pot. Two days after, the larvae were confirmed and the imagoes were removed. Then 500 ppm or 50 ppm of a compound of the present invention in the form of an emulsion diluted with water was sprayed on the cucumber seedling. After air-drying, the leaves were cut and put in a plastic vessel having a size of 9 cm (inner diameter)×6.5 cm (depth). The lid was put on the vessel, which was then left in a room kept at 26° C. for 48 hours and then the numbers of the living imagoes and dead ones were counted, and the rate of dead imagoes was calculated (repetition: twice).
Description for Nephotettix cincticeps: Rice plant seedlings were immersed in 500 ppm or 50 ppm of a compound of the present invention in the form of an emulsion diluted with water for 10 seconds. After air-drying, the root of each seedling was covered with a wet absorbent cotton and the seedling was put in a test tube. Ten larvae of Nephotettix cincticeps of the second instar were put therein. The opening of the test tube was covered with a gauze, and the test tube was then left in a room kept at 26° C. for 48 hours and then the numbers of the living imagoes and dead ones were counted, and the rate of dead imagoes was calculated (repetition: twice).
Description for Plutella xylostella: 500 ppm or 50 ppm of a compound of the present invention in the form of an emulsion diluted with water was sprayed on a leaf of Chinese cabbage seedling in 3- to 4-leaf stage. After air-drying, the leaf was placed in a plastic vessel having a size of 9 cm (inner diameter)×6.5 cm (depth). Ten larvae of Plutella xylostella of the third instar were put therein. The lid was put on the vessel, which was then left in a room kept at 26° C. for 48 hours and then the numbers of the living imagoes and dead ones were counted, and the rate of dead imagoes was calculated (repetition: twice).
Description for Rhizoctonia solani: An emulsion of a compound of the present invention prepared in Preparation Example 2 was diluted with water and uniformly sprayed on 5 rice plant seedlings (variety: Koshihikari) in 4.5-leaf stage in each plastic pot having a diameter of 6 cm, with a spray gun. One day after the spraying, the seedlings were bundled at the second sheath with a string. Colonies of Rhizoctonia solani previously cultured in PSA culture medium were bored with a cork borer to obtain pieces having a diameter of 4 mm. The piece was put in the bundle, and kept in a high-humidity room at 25° C. until the examination. Ten days after the inoculation, the degree of the disease was examined, and the preventive rate (effect of inhibiting the disease) was calculated on the basis of the following standard:
Preventive rate=[1-D′/C′]×100
C′: Severity in untreated section
D′: Severity in treated section.
Description for Spodoptera litura: 500 ppm of a compound of the present invention in the form of an emulsion diluted with water was sprayed on a leaf of chinese cabbage seedling in 3- to 4-leaf stage. After air-drying, the leaf was placed in a plastic vessel having a size of 21 cm(length)×13 cm(width)×3 cm (depth). Ten larvae of Spodoptera litura of the third instar were put therein. The lid was put on the vessel, which was then left in a room kept at 26° C. for 48 hours and then the numbers of the living imagoes and dead ones were counted, and the rate of dead imagoes was calculated (repetition: twice).
Description for Tetranychus kanzawai: A piece (3 cm×5 cm) of green bean leaf was placed with the backside up, on a filter paper wet with water so as to prevent the leaf from drying, and inoculated with 10 female imagoes of Tetranychus kanzawai per a leaf. 24 hours after the inoculation, 500 ppm of a compound of the present invention in the form of an emulsion diluted with water was sprayed thereon. After air-drying, the piece was left to stand in a room kept at 26° C. for 24 hours and then the numbers of the living imagoes and dead ones were counted, and the rate of dead imagoes was calculated (repetition: twice).

With `CNC(=O)/C(=N/OC)c1ccccc1COc1ccc2c(c1)OCC2=NOC` [a-5, (E) methoxyimino-[2-(3-methoxyimino-2,3-dihydro-benzofuran-6-yloxymethyl)phenyl]-N-methyl-acetamide], the melting point was 143 to 145 °C. In addition, the “Preventive rate (%)” value in the data set on Chochliobolus miyabeanus (setting [3]) stood at 89%. Besides, in the data set with Chochliobolus miyabeanus (setting [4]), the “Preventive rate (%)” value is 96%. Moreover, in the data set with Puccinia recondite, the “Number of lesions formed within the mark to the tip” value came to 0, the “Preventive rate (%)” value is listed as 100% and the “Rate of the translocation perfect preventive conc. (%)” value is 100%. Moreover, the “Preventive rate (%)” value in the data set with Puccinia recondita (setting [3]) was found to be 100%. Besides, the “Preventive rate (%)” value with Puccinia recondita (setting [4]) is reported as 100%. Further, the “Preventive rate (%)” value with Pyricularia oryzae (setting [3]) was found to be 90%. Further, in the data set on Pyricularia oryzae (setting [4]), the “Preventive rate (%)” value was 96%. For the same molecule, in the data set on Rhizoctonia solani (setting [3]), the “Preventive rate (%)” value turned out to be 70%. In addition, the “Preventive rate (%)” value in the data set with Rhizoctonia solani (setting [4]) is reported as 84%. Moreover, the “Preventive rate (%)” value in data set [1] (setting [3]) worked out at 88%. Also, the “Preventive rate (%)” value in data set [1] (setting [4]) was determined as 94%. In addition, the Index in data set [2] is 3 (At least 40% of the area of the leaf was free from the disease.). The “Preventive rate (%)” value in the data set on Erysiphe graminis (setting [3]) worked out at 95%. The “Preventive rate (%)” value in the data set with Erysiphe graminis (setting [4]) was determined as 100%. Moreover, in the data set on Phytophthora infestans (setting [3]), the “Preventive rate (%)” value was determined as 97%. The “Preventive rate (%)” value with Phytophthora infestans (setting [4]) amounted to 100%.

With `CNC(=O)/C(=N/OC)c1ccccc1COc1ccc2c(c1)CCC2` [comparative compound (1), 2-methoxyimino-2-[2-(indane-5-yloxymethyl)-phenyl]-acetic acid methylamide, reference compound], the “Preventive rate (%)” value in the data set with Chochliobolus miyabeanus (setting [3]) is 0%; with Chochliobolus miyabeanus (setting [4]) it was 64%; in the data set with Puccinia recondite it was 23%; in the data set on Puccinia recondita (setting [3]), 86%; in the data set on Puccinia recondita (setting [4]) it was 99%; in the data set on Pyricularia oryzae (setting [3]), 48%. The “Preventive rate (%)” value in the data set with Pyricularia oryzae (setting [4]) is recorded as 63%; in the data set with Rhizoctonia solani (setting [3]), 0%; with Rhizoctonia solani (setting [4]) it was 24%; in data set [1] (setting [3]), 30%; in data set [1] (setting [4]) it was 81%; in the data set on Botrytis cinerea (setting [3]), 25%. Also, the “Preventive rate (%)” value with Botrytis cinerea (setting [4]) is recorded as 44%; with Erysiphe graminis (setting [3]), 17%; with Erysiphe graminis (setting [4]), 99%; with Phytophthora infestans (setting [3]), 63%; with Phytophthora infestans (setting [4]) it was 94%. For the same molecule, the “effect of controlling insect pests” value with Nephotettix cincticeps, with Plutella xylostella, in the data set on Spodoptera litura, in the data set on Tetranychus kanzawai and in the data set on Aphis gossypii was “did not exhibit the effect of controlling insect pests” each time. Moreover, the “Number of lesions formed within the mark to the tip” value in the data set with Puccinia recondite was determined as 48. Also, the “Rate of the translocation perfect preventive conc. (%)” value with Puccinia recondite turned out to be 4.4%. The Index in data set [2] stood at 0.

`CO/N=C(\C(=O)OC)c1ccccc1COc1ccc2c(c1)CCCC2` [comparative compound (2), 2-methoxyimino-2-[2-(5,6,7,8-tetrahydronaphthalene-2-yloxymethyl)phenyl]-methylacetate, reference compound]: the “Preventive rate (%)” value with Chochliobolus miyabeanus (setting [3]) was determined as 20%; in the data set on Chochliobolus miyabeanus (setting [4]), 85%; in the data set with Puccinia recondita (setting [3]), 70%; in the data set on Puccinia recondita (setting [4]), 100%; in the data set on Pyricularia oryzae (setting [3]), 49%; with Pyricularia oryzae (setting [4]), 55%. Moreover, the “Preventive rate (%)” value is reported as 0% with Rhizoctonia solani (setting [3]); 0% in the data set on Rhizoctonia solani (setting [4]); 70% in data set [1] (setting [3]); 93% in data set [1] (setting [4]); 11% in the data set with Botrytis cinerea (setting [3]); 21% with Botrytis cinerea (setting [4]). Besides, the “Preventive rate (%)” value turned out to be 59% in the data set on Erysiphe graminis (setting [3]), 100% in the data set with Erysiphe graminis (setting [4]), 38% in the data set with Phytophthora infestans (setting [3]) and 100% with Phytophthora infestans (setting [4]). The “effect of controlling insect pests” value with Nephotettix cincticeps, in the data set with Plutella xylostella, in the data set with Spodoptera litura, in the data set on Tetranychus kanzawai and in the data set on Aphis gossypii was “did not exhibit the effect of controlling insect pests” throughout.

Source of the values: patent US6399542B1, “Alkoxyimino-substituted bicyclic compounds compositions containing the same and method of making such compounds” (Agro-Kanesho Co., Ltd., priority 1997, dated 2002).
